Data on two molecules can be found in patent US20220257552A1, “METHODS OF PRESCREENING AND TREATING BREAST CANCERS WITH SELECTIVE ANDROGEN RECEPTOR MODULATORS” (priority 2021, published 2022).

One data set has as its target T1, AR (Homo sapiens, UniProt P10275).
T1 sequence (P10275 1-920): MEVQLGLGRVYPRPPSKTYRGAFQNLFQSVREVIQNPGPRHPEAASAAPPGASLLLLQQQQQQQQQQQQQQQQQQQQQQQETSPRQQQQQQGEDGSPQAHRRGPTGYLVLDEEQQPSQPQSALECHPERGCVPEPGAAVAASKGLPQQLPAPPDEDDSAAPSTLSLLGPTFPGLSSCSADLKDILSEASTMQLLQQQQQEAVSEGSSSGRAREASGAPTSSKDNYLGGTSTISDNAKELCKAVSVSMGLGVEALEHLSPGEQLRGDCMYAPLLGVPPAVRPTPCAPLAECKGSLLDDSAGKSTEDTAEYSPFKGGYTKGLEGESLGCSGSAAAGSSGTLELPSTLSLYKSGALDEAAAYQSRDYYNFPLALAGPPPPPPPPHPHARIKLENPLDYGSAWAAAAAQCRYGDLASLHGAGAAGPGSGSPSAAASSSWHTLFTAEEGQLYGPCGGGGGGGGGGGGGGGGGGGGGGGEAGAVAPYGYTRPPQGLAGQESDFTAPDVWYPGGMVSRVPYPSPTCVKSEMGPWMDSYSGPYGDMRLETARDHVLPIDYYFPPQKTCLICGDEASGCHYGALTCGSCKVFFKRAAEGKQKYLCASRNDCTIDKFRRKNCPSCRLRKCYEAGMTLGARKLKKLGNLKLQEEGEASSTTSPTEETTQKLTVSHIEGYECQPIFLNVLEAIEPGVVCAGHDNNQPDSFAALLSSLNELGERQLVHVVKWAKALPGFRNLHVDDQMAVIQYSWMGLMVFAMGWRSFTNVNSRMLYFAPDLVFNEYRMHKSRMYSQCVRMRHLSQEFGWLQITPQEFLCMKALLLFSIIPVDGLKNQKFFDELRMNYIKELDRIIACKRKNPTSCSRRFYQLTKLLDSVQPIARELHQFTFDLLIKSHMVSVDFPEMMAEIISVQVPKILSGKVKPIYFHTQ
The experiment in a line: AR transactivation (GRE-LUC) in HEK-293 or MDA-MB-231 cells. The arrangement: expressed in transfected cells. Format: cell-based. Conditions: HEK-293 and MDA-MB-231 cells. How it is done: Though AR transactivation assay was performed in HEK-293 cells, the ability of ligands to function as agonists or antagonists depends on cellular microenvironment. […] The cells were treated 24 h after transfection and luciferase assay performed 48 h after transfection.

The subject of data set [1] is MDA-MB-231-AR triple negative breast cancer cells. The experiment in a line: MDA-MB-231-AR xenograft in nude mice. Format: in vivo. Conditions: for body weight / tumor weights: all doses. How it is done:
MDA-MB-231-AR triple negative breast cancer cells (2 million cells/mouse; MDA-MB-231 cells stably transfected with AR using lentivirus) were mixed with matrigel (1:1) and injected subcutaneously into the flanks of intact female nude mice (n=5/group). When the tumors reached 150-200 mm^3, the animals were separated into two groups, one receiving vehicle and the other receiving 30 mg/kg Formula VIII orally. Tumor volume was measured thrice weekly and % tumor growth inhibition (TGI) was calculated. At the end of 35 days of treatment, the animals were sacrificed, tumors excised, weighed, and collected for various analyses. Blood was collected and serum separated for drug concentration measurement.

The test system of data set [2] is MDA-MB-231 breast cancer cells stably transfected with AR. Put plainly: Proliferation of MDA-MB-231 cells stably transfected with AR (Coulter counter). Format: cell-based. Conditions: 6 days, cell count. As to the method: MDA-MB-231 cells stably transfected with AR using lentivirus were treated with the indicated ligands for 6 days and the number of cells counted using Coulter counter.

In another data set the test system is MCF-7-AR tumors. The experiment in a line: Phospho MAPK array of MCF-7-AR tumors. The arrangement: species or system mice. The note with it: mouse, in vivo. As to the method:
Protein from MCF-7-AR tumors that were treated with vehicle or compound of Formula VIII were extracted and incubated with phospho MAPK array to determine the effect of compound of Formula VIII on phosphorylation of various kinases.

The subject of the next data set is MDA-MB-231-AR cells. Put plainly: Morphology of MDA-MB-231-AR cells. Format: cell-based. The note with it: 3 days. As to the method: MDA-MB-231 cells were stably transfected with AR using lentivirus. […] Live cells were visualized using a light-microscope and photographed. The cells were imaged at the same magnification and under the same microscopic conditions.
MDA-MB-231 cells were stably transfected with AR using lentivirus and were treated with vehicle or AR agonists at the indicated concentrations. At the end of 3 days of incubation, the cells were imaged under a microscope (40×).

The next data set deals with T2, PR (Rattus norvegicus, UniProt Q63449).
T2 construct: expressed in transfected cells
T2 sequence (Q63449 1-923): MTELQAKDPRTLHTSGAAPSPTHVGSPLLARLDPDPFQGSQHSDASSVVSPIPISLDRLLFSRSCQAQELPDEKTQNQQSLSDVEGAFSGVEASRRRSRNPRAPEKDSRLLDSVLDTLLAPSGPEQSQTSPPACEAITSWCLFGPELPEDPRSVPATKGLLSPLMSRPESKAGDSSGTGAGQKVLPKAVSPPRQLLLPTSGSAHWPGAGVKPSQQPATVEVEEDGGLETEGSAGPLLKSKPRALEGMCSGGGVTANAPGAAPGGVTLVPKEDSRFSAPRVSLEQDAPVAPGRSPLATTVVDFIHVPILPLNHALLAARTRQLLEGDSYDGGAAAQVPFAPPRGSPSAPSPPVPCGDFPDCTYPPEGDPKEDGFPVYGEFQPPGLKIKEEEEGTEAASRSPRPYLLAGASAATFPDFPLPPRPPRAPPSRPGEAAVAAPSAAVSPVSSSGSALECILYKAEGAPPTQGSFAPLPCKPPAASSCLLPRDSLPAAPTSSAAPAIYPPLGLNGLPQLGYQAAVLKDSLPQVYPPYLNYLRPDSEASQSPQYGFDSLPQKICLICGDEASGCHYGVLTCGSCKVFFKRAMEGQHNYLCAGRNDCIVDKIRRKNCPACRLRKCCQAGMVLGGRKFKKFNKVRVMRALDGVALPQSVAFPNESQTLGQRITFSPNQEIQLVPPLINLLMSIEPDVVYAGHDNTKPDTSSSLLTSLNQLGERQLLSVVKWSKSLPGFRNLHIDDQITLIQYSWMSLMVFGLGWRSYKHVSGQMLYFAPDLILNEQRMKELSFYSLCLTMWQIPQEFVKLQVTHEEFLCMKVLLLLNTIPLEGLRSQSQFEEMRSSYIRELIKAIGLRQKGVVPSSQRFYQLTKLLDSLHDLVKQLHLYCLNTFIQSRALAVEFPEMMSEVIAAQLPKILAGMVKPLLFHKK
The experiment in a line: PR transactivation in HEK-293 cells. Format: cell-based. As to the method:
Rat GR, MR, PR, ER-α and ER-β were individually cloned into a pCR3.1 vector backbone. Sequencing was performed to verify the absence of any mutations. HEK-293 cells were plated at 90,000 cells per well of a 24 well plate in Dulbecco's Minimal Essential Media supplemented with 5% charcoal-stripped FBS. […] Luciferase assays were performed 48 h after transfection. Transcriptional activation values are represented as firefly luciferase normalized to renilla luciferase.

Consider `C[C@](O)(COc1ccc(C#N)cc1)C(=O)Nc1ccc(C#N)c(Cl)c1` [Formula VIII, (S)—N-(3-chloro-4-cyanophenyl)-3-(4-cyanophenoxy)-2-hydroxy-2-methylpropanamide], for which the AR transactivation result at AR was “agonists of AR”. Also, the uterus weight entry in data set [1] (30 mg/kg orally) was “increased”. In addition, the “toxicity / body weight” value in data set [1] (30 mg/kg orally, 35 days) is on record as “without any associated toxicity or changes in body weight”. In addition, in data set [1], the body weight result is on record as “increase of body weight” and the tumor weights result is “reduced”. Moreover, the proliferation result in data set [2] is listed as “inhibited the proliferation”. Besides, the JNK phosphorylation entry with MCF-7-AR tumors was “upregulated”. Also, the cell morphology result in the data set on MDA-MB-231-AR cells is “altered the morphology into a more anchored phenotype”. For the same molecule, on PR, the IC50 is 0.0171 µM, the “PR antagonist potency relative to Formula IX (more potent)” value was 10 times, the “PR antagonist potency relative to R-enantiomer of Formula IX (more potent)” value was 100 times and the “PR antagonist potency relative to RU486 (weaker)” value is “about 1,000 fold”. Besides, the “transactivation of PR, increase” value at PR (1 μM) amounted to 3 fold. Also, the “transactivation of PR, increase” value on PR (10 μM) came out at 8 fold. In addition, the “weaker than the endogenous agonist for PR” value at PR (vs progesterone) is “greater than 10,000 fold”.

As for `C[C@](O)(COc1ccc(C#N)cc1)C(=O)Nc1ccc(C#N)c(C(F)(F)F)c1` [Formula IX, (S)—N-(4-Cyano-3-(trifluoromethyl)phenyl)-3-(4-cyanophenoxy)-2-hydroxy-2-methylpropanamide], the AR transactivation result on AR is given as “agonists of AR”. For the same molecule, in data set [1], the body weight result is “increase of body weight” and the tumor weights entry is “reduced”. The proliferation result in data set [2] was “inhibited the proliferation”. In addition, the cell morphology entry in the data set on MDA-MB-231-AR cells was “altered the morphology into a more anchored phenotype”. This molecule also displayed an IC50 against PR of 0.163 µM.
